Test results as given in US20160108049A1 (TAKEDA Gmbh, priority 2011, published 2016).

Experiments:
human PDE5 = biological target: T1, human PDE5 (Homo sapiens, UniProt O76074); assay: Inhibition of PDE5 activity (platelet lysate, SPA assay); type: biochemical; details: 0.5 μM cGMP, read-out: PDE5 Inhibitory values measured as -logIC50 (converted)
T1 construct: from tissue; host or cells: human platelets from fresh donor blood (platelet lysate)
Outline: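 SPA readout of [3H]cGMP hydrolysis (0.5 μM, 15 min, 37 °C after 5 min preincubation), stopped with yttrium silicate beads containing IBMX. Enzyme was lysate from human platelets, used at 10–20% substrate turnover, with PDE3 (motapizone 1 μM) and PDE2 (10 nM) blockers present. IC50 values fitted non-linearly from concentration-effect curves.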

PDE4B1 = biological target: T2, PDE4B1 (Homo sapiens, UniProt Q07343); assay: Inhibition of PDE4 activity (PDE4B1, SPA assay); type: biochemical; details: recombinant PDE4B1, 0.5 μM cAMP; read-out: PDE4B1 Inhibitory values measured as -logIC50 (converted)
T2 construct: made in house; host or cells: SF21 insect cells (baculovirus; virus made in SF9 cells, pCR-Bac vector)
T2 sequence (Q07343 whole entry): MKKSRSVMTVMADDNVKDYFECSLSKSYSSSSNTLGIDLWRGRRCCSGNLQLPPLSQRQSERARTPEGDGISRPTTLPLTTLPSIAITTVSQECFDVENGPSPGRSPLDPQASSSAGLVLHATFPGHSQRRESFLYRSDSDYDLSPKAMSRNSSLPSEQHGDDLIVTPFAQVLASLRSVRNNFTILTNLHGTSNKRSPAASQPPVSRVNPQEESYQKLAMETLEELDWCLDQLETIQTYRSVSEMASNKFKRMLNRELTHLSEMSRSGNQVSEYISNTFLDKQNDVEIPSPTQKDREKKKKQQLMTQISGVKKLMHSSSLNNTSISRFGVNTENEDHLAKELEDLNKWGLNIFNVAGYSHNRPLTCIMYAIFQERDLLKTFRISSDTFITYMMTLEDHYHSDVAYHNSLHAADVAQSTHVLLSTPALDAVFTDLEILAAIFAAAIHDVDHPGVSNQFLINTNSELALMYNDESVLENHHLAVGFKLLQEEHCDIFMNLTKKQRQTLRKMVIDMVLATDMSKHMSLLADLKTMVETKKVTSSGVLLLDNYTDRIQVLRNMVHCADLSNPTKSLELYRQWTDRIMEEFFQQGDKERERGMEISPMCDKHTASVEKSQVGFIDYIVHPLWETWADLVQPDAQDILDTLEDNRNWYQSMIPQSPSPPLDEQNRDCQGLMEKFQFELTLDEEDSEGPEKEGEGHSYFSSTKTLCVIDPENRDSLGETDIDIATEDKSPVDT
Outline: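 Read-out is SPA yttrium silicate bead scintillation after IBMX-containing beads stop the reaction. Insect-cell (SF21) lysate enzyme hydrolysed 0.5 μM [3H]cAMP at pH 7.4 with 5 mM Mg2+ for 15 min after a 5 min 37 °C preincubation; IC50 fitted by non-linear regression.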

Row | SMILES | IC50 (human PDE5) | IC50 (PDE4B1)
1 | COc1ccc(C2=NN(C3CCN(C(=O)[C@@H](C)NC(=O)c4c[nH]c5c(-c6c(OCC7CC7)ccc7c6OCO7)ncnc45)CC3)C(=O)C(C)(C)C2)cc1OC [Example 111, 4-[5-(cyclopropylmethoxy)-1,3-benzodioxol-4-yl]-N-[(2R)-1-{4-[3-(3,4-dimethoxyphenyl)-5,5-dimethyl-6-oxo-5,6-dihydropyridazin-1(4H)-yl]piperidin-1-yl}-1-oxopropan-2-yl]-5H-pyrrolo[3,2-d]pyrimidine-7-carboxamide] | 1 to 10 nM | 1 to 10 nM
2 | COc1ccc(C2=NN(C3CCN(C(=O)[C@@H](Cc4ccc(N5CCC5=O)cc4)NC(=O)c4c[nH]c5c(-c6c(OCC7CC7)ccc7c6OCO7)ncnc45)CC3)C(=O)[C@@H]3CCCC[C@H]23)cc1OC [Example 112, 4-[5-(cyclopropylmethoxy)-1,3-benzodioxol-4-yl]-N-{(2R)-1-{4-[(4aS,8aR)-4-(3,4-dimethoxyphenyl)-1-oxo-4a,5,6,7,8,8a-hexahydrophthalazin-2(1H)-yl]piperidin-1-yl}-1-oxo-3-[4-(2-oxoazetidin-1-yl)phenyl]propan-2-yl}-5H-pyrrolo[3,2-d]pyrimidine-7-carboxamide] | < 1 nM | < 1 nM
3 | COc1ccc(C2=NN(C3CCN(C(=O)[C@@H](Cc4ccc(N5CCCC5=O)cc4)NC(=O)c4c[nH]c5c(-c6c(OCC7CC7)ccc7c6OCO7)ncnc45)CC3)C(=O)[C@@H]3CCCC[C@H]23)cc1OC [Example 113, 4-[5-(cyclopropylmethoxy)-1,3-benzodioxol-4-yl]-N-{(2R)-1-{4-[(4aS,8aR)-4-(3,4-dimethoxyphenyl)-1-oxo-4a,5,6,7,8,8a-hexahydrophthalazin-2(1H)-yl]piperidin-1-yl}-1-oxo-3-[4-(2-oxopyrrolidin-1-yl)phenyl]propan-2-yl}-5H-pyrrolo[3,2-d]pyrimidine-7-carboxamide] | < 1 nM | < 1 nM
4 | COc1ccc(C2=NN(C3CCN(C(=O)[C@H](Cc4cccnc4)NC(=O)c4c[nH]c5c(-c6c(OCC7CC7)ccc7c6OCO7)ncnc45)CC3)C(=O)C(C)(C)C2)c2c1OC(C)(C)C2 [Example 114, 4-[5-(cyclopropylmethoxy)-1,3-benzodioxol-4-yl]-N-[(2S)-1-{4-[3-(7-methoxy-2,2-dimethyl-2,3-dihydro-1-benzofuran-4-yl)-5,5-dimethyl-6-oxo-5,6-dihydropyridazin-1(4H)-yl]piperidin-1-yl}-1-oxo-3-(pyridin-3-yl)propan-2-yl]-5H-pyrrolo[3,2-d]pyrimidine-7-carboxamide] | < 1 nM | 1 to 10 nM
5 | COc1ccc(C2=NN(C3CCN(C(=O)[C@@H](Cc4ccccc4)NC(=O)c4c[nH]c5c(-c6c(OCC7CC7)ccc7c6OCO7)ncnc45)CC3)C(=O)C(C)(C)C2)c2c1OC(C)(C)C2 [Example 115] | 1 to 10 nM | < 1 nM
6 | CCC1(CC)CC(c2ccc(OC)c(OC)c2)=NN(C2CCN(C(=O)[C@@H](Cc3ccccc3)NC(=O)c3c[nH]c4c(-c5c(OCC6CC6)ccc6c5OCO6)ncnc34)CC2)C1=O [Example 116, 4-[5-(cyclopropylmethoxy)-1,3-benzodioxol-4-yl]-N-[(2R)-1-{4-[3-(3,4-dimethoxyphenyl)-5,5-diethyl-6-oxo-5,6-dihydropyridazin-1(4H)-yl]piperidin-1-yl}-1-oxo-3-phenylpropan-2-yl]-5H-pyrrolo[3,2-d]pyrimidine-7-carboxamide] | 1 to 10 nM | 1 to 10 nM
7 | COc1ccc(C2=NN(C3CCN(C(=O)CNC(=O)c4c[nH]c5c(-c6c(OCC7CC7)ccc7c6OCO7)ncnc45)CC3)C(=O)C(C)(C)C2)c2c1OC(C)(C)C2 [Example 117, 4-[5-(cyclopropylmethoxy)-1,3-benzodioxol-4-yl]-N-(2-{4-[3-(7-methoxy-2,2-dimethyl-2,3-dihydro-1-benzofuran-4-yl)-5,5-dimethyl-6-oxo-5,6-dihydropyridazin-1(4H)-yl]piperidin-1-yl}-2-oxoethyl)-5H-pyrrolo[3,2-d]pyrimidine-7-carboxamide] | 1 to 10 nM | 1 to 10 nM
8 | COc1ccc(C2=NN(C3CCN(C(=O)[C@@H](CCC(=O)N(C)C)NC(=O)c4c(C)[nH]c5c(-c6c(OCC7CC7)ccc7c6OCO7)ncnc45)CC3)C(=O)C(C)(C)C2)cc1OC [Example 118, 4-[5-(cyclopropylmethoxy)-1,3-benzodioxol-4-yl]-N-[(2R)-1-{4-[3-(3,4-dimethoxyphenyl)-5,5-dimethyl-6-oxo-5,6-dihydropyridazin-1(4H)-yl]piperidin-1-yl}-5-(dimethylamino)-1,5-dioxopentan-2-yl]-6-methyl-5H-pyrrolo[3,2-d]pyrimidine-7-carboxamide] | < 1 nM | 1 to 10 nM
9 | COc1ccc(C2=NN(C3CCN(C(=O)[C@H](NC(=O)c4c[nH]c5c(-c6c(OCC7CC7)ccc7c6OCO7)ncnc45)C(C)C)CC3)C(=O)[C@@H]3CCCC[C@H]23)cc1OC [Example 119, 4-[5-(cyclopropylmethoxy)-1,3-benzodioxol-4-yl]-N-[(2R)-1-{4-[(4aS,8aR)-4-(3,4-dimethoxyphenyl)-1-oxo-4a,5,6,7,8,8a-hexahydrophthalazin-2(1H)-yl]piperidin-1-yl}-3-methyl-1-oxobutan-2-yl]-5H-pyrrolo[3,2-d]pyrimidine-7-carboxamide] | < 1 nM | < 1 nM
10 | COc1ccc(C2=NN(C3CCN(C(=O)[C@H](NC(=O)c4c(C)[nH]c5c(-c6c(OCC7CC7)ccc7c6OCO7)ncnc45)C(C)C)CC3)C(=O)[C@@H]3CCCC[C@H]23)cc1OC [Example 120, 4-[5-(cyclopropylmethoxy)-1,3-benzodioxol-4-yl]-N-[(2R)-1-{4-[(4aS,8aR)-4-(3,4-dimethoxyphenyl)-1-oxo-4a,5,6,7,8,8a-hexahydrophthalazin-2(1H)-yl]piperidin-1-yl}-3-methyl-1-oxobutan-2-yl]-6-methyl-5H-pyrrolo[3,2-d]pyrimidine-7-carboxamide] | 1 to 10 nM | 1 to 10 nM
11 | COc1ccc(C2=NN(C3CCN(C(=O)[C@H](NC(=O)c4c[nH]c5c(-c6c(OCC7CC7)ccc7c6OCO7)ncnc45)C(C)(C)C)CC3)C(=O)[C@@H]3CCCC[C@H]23)cc1OC [Example 121, 4-[5-(cyclopropylmethoxy)-1,3-benzodioxol-4-yl]-N-[(2R)-1-{4-[(4aS,8aR)-4-(3,4-dimethoxyphenyl)-1-oxo-4a,5,6,7,8,8a-hexahydrophthalazin-2(1H)-yl]piperidin-1-yl}-3,3-dimethyl-1-oxobutan-2-yl]-5H-pyrrolo[3,2-d]pyrimidine-7-carboxamide] | 1 to 10 nM | 1 to 10 nM
12 | COc1ccc(C2=NN(C3CCN(C(=O)CNC(=O)c4c[nH]c5c(-c6c(OCC7CC7)ccc7c6OCO7)ncnc45)CC3)C(=O)C3(CCCC3)C2)cc1OC [Example 122, 4-[5-(cyclopropylmethoxy)-1,3-benzodioxol-4-yl]-N-(2-{4-[9-(3,4-dimethoxyphenyl)-6-oxo-7,8-diazaspiro[4.5]dec-8-en-7-yl]piperidin-1-yl}-2-oxoethyl)-5H-pyrrolo[3,2-d]pyrimidine-7-carboxamide] | 1 to 10 nM | 1 to 10 nM
13 | COc1ccc(C2=NN(C3CCN(C(=O)[C@@H](Cc4ccccc4)NC(=O)c4c[nH]c5c(-c6c(OCC7CC7)ccc7c6OCO7)ncnc45)CC3)C(=O)C3(CCCC3)C2)cc1OC [Example 123, 4-[5-(cyclopropylmethoxy)-1,3-benzodioxol-4-yl]-N-[(2R)-1-{4-[9-(3,4-dimethoxyphenyl)-6-oxo-7,8-diazaspiro[4.5]dec-8-en-7-yl]piperidin-1-yl}-1-oxo-3-phenylpropan-2-yl]-5H-pyrrolo[3,2-d]pyrimidine-7-carboxamide] | 1 to 10 nM | 1 to 10 nM
14 | COc1ccc(C2=NN(C3CCN(C(=O)[C@@H](Cc4ccccc4)NC(=O)c4c(C)[nH]c5c(-c6c(OCC7CC7)ccc7c6OCO7)ncnc45)CC3)C(=O)C3(CCCC3)C2)cc1OC [Example 124, 4-[5-(cyclopropylmethoxy)-1,3-benzodioxol-4-yl]-N-[(2R)-1-{4-[9-(3,4-dimethoxyphenyl)-6-oxo-7,8-diazaspiro[4.5]dec-8-en-7-yl]piperidin-1-yl}-1-oxo-3-phenylpropan-2-yl]-6-methyl-5H-pyrrolo[3,2-d]pyrimidine-7-carboxamide] | 1 to 10 nM | 1 to 10 nM
15 | COc1ccc(C2=NN(C3CCN(C(=O)[C@H](Cc4cccnc4)NC(=O)c4c[nH]c5c(-c6c(OCC7CC7)ccc7c6OCO7)ncnc45)CC3)C(=O)C3(CCCC3)C2)cc1OC [Example 125, 4-[5-(cyclopropylmethoxy)-1,3-benzodioxol-4-yl]-N-[(2S)-1-{4-[9-(3,4-dimethoxyphenyl)-6-oxo-7,8-diazaspiro[4.5]dec-8-en-7-yl]piperidin-1-yl}-1-oxo-3-(pyridin-3-yl)propan-2-yl]-5H-pyrrolo[3,2-d]pyrimidine-7-carboxamide] | 1 to 10 nM | 1 to 10 nM
